Data taken from ChEMBL document CHEMBL3885861, “Open TG-GATES”.

Organism: Rattus norvegicus
Assay: Open TG-GATES - Regimen: Single
Format: toxicity, organism-based, Sprague-Dawley
Parameters: regimen Single, gender Male, age 6 weeks
Conditions: in vivo, po, 100 mg/kg, route gavage, dose level Low; for APTT / Bas / Eos / Fbg / Hb / Ht / Lym / MCH / MCHC / MCV / Mono / Neu / PT / Plat / RBC / Ret / WBC: tissue Blood; for KIDNEY_L / KIDNEY_R / KIDNEY_TOTAL: tissue Kidney; for LIVER: tissue Liver; for A/G / ALP / ALT / AST / BUN / CRE / Ca / Cl / DBIL / GLC / IP / K / LDH / Na / PL / RALB / TBIL / TC / TG / TP / gamma-GTP: tissue Plasma

Structure (SMILES): CCCCNC(=O)NS(=O)(=O)c1ccc(C)cc1 [TOLBUTAMIDE]
- TERMINAL_BW (3 h): 205.3 g
- APTT (3 h): 21 s
- Bas (3 h): 0%
- Eos (3 h): 1%
- Fbg (3 h): 274.2 mg/dL
- Hb (3 h): 13.4 g/dL
- Ht (3 h): 41.4%
- Lym (3 h): 73%
- MCH (3 h): 20.9 pg
- MCHC (3 h): 32.3%
- MCV (3 h): 64.7 fL
- Mono (3 h): 3.4%
- Neu (3 h): 21.8%
- PT (3 h): 13.2 s
- Plat (3 h): 122.1 x10_4/uL
- RBC (3 h): 641 x10_4/ul
- Ret (3 h): 8.8%
- WBC (3 h): 90.7 x10_2/uL
- KIDNEY_L (3 h): 1 g
- KIDNEY_R (3 h): 1 g
- KIDNEY_TOTAL (3 h): 2 g
- LIVER (3 h): 9.2 g
- A/G (3 h): 0.9
- ALP (3 h): 1360.8 IU/L
- ALT (3 h): 49 IU/L
- AST (3 h): 92 IU/L
- BUN (3 h): 10.8 mg/dL
- CRE (3 h): 0.2 mg/dL
- Ca (3 h): 10.8 mg/dL
- Cl (3 h): 106.2 meq/L
- DBIL (3 h): 0.004 mg/dL
- GLC (3 h): 156.2 mg/dL
- IP (3 h): 8.5 mg/dL
- K (3 h): 4 meq/L
- LDH (3 h): 63.6 IU/L
- Na (3 h): 141.4 meq/L
- PL (3 h): 129 mg/dL
- RALB (3 h): 2.5 g/dL
- TBIL (3 h): 0.058 mg/dL
- TC (3 h): 73.4 mg/dL
- TG (3 h): 48 mg/dL
- TP (3 h): 5.3 g/dL
- gamma-GTP (3 h): 1.2 IU/L
- TERMINAL_BW (6 h): 204.4 g
- APTT (6 h): 16.5 s
- Bas (6 h): 0%
- Eos (6 h): 1%
- Fbg (6 h): 278.2 mg/dL
- Hb (6 h): 13.5 g/dL
- Ht (6 h): 41.6%
- Lym (6 h): 75%
- MCH (6 h): 20.9 pg
- MCHC (6 h): 32.3%
- MCV (6 h): 64.8 fL
- Mono (6 h): 2.2%
- Neu (6 h): 20.4%
- PT (6 h): 13.2 s
- Plat (6 h): 124.3 x10_4/uL
- RBC (6 h): 642.6 x10_4/ul
- Ret (6 h): 9.1%
- WBC (6 h): 98.3 x10_2/uL
- KIDNEY_L (6 h): 0.9 g
- KIDNEY_R (6 h): 0.9 g
- KIDNEY_TOTAL (6 h): 1.8 g
- LIVER (6 h): 8.8 g
- A/G (6 h): 0.9
- ALP (6 h): 1403.8 IU/L
- ALT (6 h): 40.4 IU/L
- AST (6 h): 71.8 IU/L
- BUN (6 h): 10.4 mg/dL
- CRE (6 h): 0.2 mg/dL
- Ca (6 h): 10.9 mg/dL
- Cl (6 h): 106.8 meq/L
- DBIL (6 h): 0.006 mg/dL
- GLC (6 h): 137.4 mg/dL
- IP (6 h): 9.8 mg/dL
- K (6 h): 3.9 meq/L
- LDH (6 h): 50.2 IU/L
- Na (6 h): 141.8 meq/L
- PL (6 h): 134 mg/dL
- RALB (6 h): 2.5 g/dL
- TBIL (6 h): 0.06 mg/dL
- TC (6 h): 72.4 mg/dL
- TG (6 h): 64.2 mg/dL
- TP (6 h): 5.2 g/dL
- gamma-GTP (6 h): 1.2 IU/L
- TERMINAL_BW (9 h): 201.2 g
- APTT (9 h): 16.5 s
- Bas (9 h): 0%
- Eos (9 h): 1.2%
- Fbg (9 h): 288.4 mg/dL
- Hb (9 h): 13.6 g/dL
- Ht (9 h): 41.6%
- Lym (9 h): 72.6%
- MCH (9 h): 20.9 pg
- MCHC (9 h): 32.7%
- MCV (9 h): 63.9 fL
- Mono (9 h): 1.6%
- Neu (9 h): 24%
- PT (9 h): 13.5 s
- Plat (9 h): 122.2 x10_4/uL
- RBC (9 h): 650.4 x10_4/ul
- Ret (9 h): 8.3%
- WBC (9 h): 89.4 x10_2/uL
- KIDNEY_L (9 h): 0.9 g
- KIDNEY_R (9 h): 0.9 g
- KIDNEY_TOTAL (9 h): 1.8 g
- LIVER (9 h): 7.9 g
- A/G (9 h): 0.9
- ALP (9 h): 1515.4 IU/L
- ALT (9 h): 39.2 IU/L
- AST (9 h): 80.4 IU/L
- BUN (9 h): 10 mg/dL
- CRE (9 h): 0.2 mg/dL
- Ca (9 h): 10.7 mg/dL
- Cl (9 h): 107.4 meq/L
- DBIL (9 h): 0.002 mg/dL
- GLC (9 h): 158.2 mg/dL
- IP (9 h): 9.7 mg/dL
- K (9 h): 4.1 meq/L
- LDH (9 h): 66.6 IU/L
- Na (9 h): 142.4 meq/L
- PL (9 h): 122.8 mg/dL
- RALB (9 h): 2.5 g/dL
- TBIL (9 h): 0.064 mg/dL
- TC (9 h): 69.4 mg/dL
- TG (9 h): 34.6 mg/dL
- TP (9 h): 5.2 g/dL
- gamma-GTP (9 h): 1 IU/L
- TERMINAL_BW (24 h): 220.2 g
- APTT (24 h): 17.7 s
- Bas (24 h): 0.2%
- Eos (24 h): 1%
- Fbg (24 h): 273.6 mg/dL
- Hb (24 h): 13.3 g/dL
- Ht (24 h): 41%
- Lym (24 h): 80.4%
- MCH (24 h): 20.8 pg
- MCHC (24 h): 32.5%
- MCV (24 h): 64.1 fL
- Mono (24 h): 2.4%
- Neu (24 h): 15.4%
- PT (24 h): 12.9 s
- Plat (24 h): 129 x10_4/uL
- RBC (24 h): 640.4 x10_4/ul
- Ret (24 h): 7.7%
- WBC (24 h): 82.4 x10_2/uL
- KIDNEY_L (24 h): 1 g
- KIDNEY_R (24 h): 1 g
- KIDNEY_TOTAL (24 h): 2 g
- LIVER (24 h): 10.2 g
- A/G (24 h): 0.9
- ALP (24 h): 1457.6 IU/L
- ALT (24 h): 46.4 IU/L
- AST (24 h): 73 IU/L
- BUN (24 h): 14.6 mg/dL
- CRE (24 h): 0.2 mg/dL
- Ca (24 h): 11.2 mg/dL
- Cl (24 h): 104.4 meq/L
- DBIL (24 h): 0.008 mg/dL
- GLC (24 h): 174.6 mg/dL
- IP (24 h): 8.7 mg/dL
- K (24 h): 4.2 meq/L
- LDH (24 h): 69 IU/L
- Na (24 h): 142 meq/L
- PL (24 h): 148.2 mg/dL
- RALB (24 h): 2.5 g/dL
- TBIL (24 h): 0.066 mg/dL
- TC (24 h): 80.6 mg/dL
- TG (24 h): 70.8 mg/dL
- TP (24 h): 5.3 g/dL
- gamma-GTP (24 h): 1.2 IU/L
